From EP3816157A1 (Guangxi Normal University, priority 2019, dated 2021)

Legend:
Experiment in all cases: MTT inhibition test against cell growth
[1] = test system: HL-7702; assay type: cell-based
Method: (§1) The test selected human ovarian cancer cell SK-OV-3, liver cancer cell Hep-G2, gastric cancer cell MGC-803, bladder cancer cell T-24, cervical cancer cell HeLa-229, human large cell lung cancer cell NCI-H460 and human normal liver cell HL-7702, and all the used cell lines were placed in an RPMI-1640 or high-sugar DMEM culture solution containing 1% penicillin-streptomycin and 10% newborn fetal calf serum and cultured in an incubator at 37 °C and 5% CO2. The growths of the cells were observed discontinuously by an inverted microscope, and the culture solution was replaced periodically or digestion subcultured with 0.25% trypsin according to actual situations. […] The compounds each were formulated into 20 µmol/L of a solution, DMSO is used as a cosolvent with a final concentration of ≤1%; at the concentration, the inhibition degrees of the compounds against the growth of tumor cells were tested. […] After the individual tumor cells were attached to the wall, the working solutions of the tested compounds were added, and each compound is provided with quintuple holes in parallel whilst a corresponding control group (with a culture solution only containing tumor cells and the same equivalent of DMSO but without the tested compounds) is provided. […] The following equitation was utilized: […]

[2] = test system: NCI-H460; assay type: cell-based; settings: human large cell lung cancer cell NCI-H460, 48 hours
Method: as §1

[3] = test system: T-24; assay type: cell-based, human; settings: bladder cancer cell T-24, 48 hours
Method: as §1

[4] = test system: MGC-803; assay type: cell-based, human; settings: gastric cancer cell MGC-803, 48 hours
Method: as §1

[5] = test system: HeLa-229; assay type: cell-based, human; settings: cervical cancer cell HeLa-229, 48 hours
Method: as §1

[6] = test system: HepG-2; assay type: cell-based, human
Method: as §1

[7] = L02, human normal liver cell HL-7702, 48 hours
[8] = Homo sapiens, HepG2, liver cancer cell HepG-2, 48 hours

| Structure (SMILES) | IC50 [1, 7] [µM] | IC50 [2] [µM] | IC50 ([3]; Homo sapiens) [µM] | IC50 ([4]; Homo sapiens) [µM] | IC50 ([5]; Homo sapiens) [µM] | IC50 [6, 8] [µM] | IC50 ([1]; human normal liver cell HL-7702, 48 hours) [µM] | IC50 [3] [µM] | IC50 [4] [µM] | IC50 [5] [µM] | IC50 ([6]; liver cancer cell HepG-2, 48 hours) [µM] |
| --- | --- | --- | --- | --- | --- | --- | --- | --- | --- | --- | --- |
| O=S(=O)(O)c1ccc(N=Cc2c3ccccc3c(C=NNC3=NCCN3)c3ccccc23)cc1 [9-benzenesulfonic acid-10-imidazolylanthrahydrazone] | 11.3 ± 0.71 | 14.5 ± 1.42 | 10.7 ± 0.56 | 9.48 ± 0.68 | 10.5 ± 1.52 | 12.7 ± 1.56 | – | – | – | – | – |
| O=Cc1c2ccccc2c(C=NNC2=NCCN2)c2ccccc12 [9-formyl-10-imidazolylanthrahydrazone] | 16.4 ± 2.78 | 16.1 ± 1.4 | 13.9 ± 1.46 | 18.8 ± 0.5 | > 20 | 15.1 ± 1.69 | – | – | – | – | – |
| N.N.[Cl][Pt][Cl] [cisplatin] | – | 18.3 ± 1.02 | – | – | – | – | 12.7 ± 1.27 | 14.8 ± 2.74 | 17.8 ± 2.5 | 13.2 ± 2.74 | 18.6 ± 0.78 |
